Results: publication PMC12027946, “Ionic and Non-Ionic Counterparts Based on Bis(Uracilyl)Alkane Moiety with Highest Selectivity Towards Acetylcholinesterase for Protection Against Organophosphate Poisoning and Treating Alzheimer’s Disease” (International Journal of Molecular Sciences, 2025)
Where “and” joins values, the source holds several entries; their conditions need not be identical. Identical values can stand only once.

Columns and labels:
BChE from human plasma = target: T1, BChE from human plasma (Homo sapiens, UniProt P06276); experiment: In vitro cholinesterase inhibition (Ellman), BuChE; assay type: biochemical; conditions: Table 2; human BuChE; read-out: IC50 BuChE
T1 construct: butyrylcholiesterase from human plasma; purchased Sigma-Aldrich; host or cells: human plasma
Experimental: (§1) Inhibitory activities of the tested compounds against AChE and BChE were measured according to Ellman et al.. Enzyme-catalysed hydrolysis of ATCHh was carried out at 25 °C in 0.1 M phosphate buffer (pH 8.0) containing 0.25 U AChE, 1 mM ATCHh as substrates, and 0.1 mM of DTNB. In experiments with BuChE, 0.1 M phosphate buffer (pH 7.0) and BuTChh as a substrate were used. The tested compounds were pre-incubated with the enzyme for two minutes prior to the addition of the substrate and the subsequent recording of hydrolysis kinetics. […] A sample without an inhibitor was used as a control (100% cholinesterase activity). A sample without a substrate was used as a blank. Experiments were performed in triplicate.

human AChE [1] = target: T2, human AChE (Homo sapiens, UniProt P22303); experiment: Inhibition constants (Dixon and Cornish–Bowden plots), AChE; assay type: biochemical
T2 construct: purchased Sigma-Aldrich
Experimental: (§2) Experiments were performed using four different concentrations of ATCh as a substrate for AChE, and with BuTCh as a substrate for BuChE. According to the analysis of Dixon and Cornish–Bowden plots for bisuracil 2b, AChE and BuChE inhibition is of a mixed type characterised both by competitive inhibition (Kci) and uncompetitive inhibition (Kui) components. For AChE, Kci was determined to be 55.7 ± 8.1 pM while Kui = 156 ± 18 pM (Figure 3A,B), and Kci = 0.13 ± 0.02 mM while Kui = 0.7 ± 0.06 mM for BuChE (Figure 3C,D). Inhibition of AChE and BuChE by bisuracil 3c was of a mixed type. For the AChE constant, Kci was 0.7 ± 0.04 nM while Kui 4.45 ± 1.76 nM (Figure 4A,B); for the BuChE constant, Kci = 0.04 ± 0.007 мM while Kui = 0.68 ± 0.08 мM (Figure 4C,D).
(§3) A UV-1800 Shimadzu (Shimadzu Co., Kyoto, Japan) spectrophotometer was utilised to conduct the measurements. The final enzyme concentration in the assays was in the picomolar range. In order to ascertain the levels of spontaneous hydrolysis of the enzyme and substrate in the absence of an inhibitor, controls were performed for each substrate concentration. The change in absorption was then recorded over a period of three minutes. The inhibition constants were determined from a Dixon plot and Cornish–Bowden transformation.

human AChE [2] = target: T2, human AChE; experiment: In vitro cholinesterase inhibition (Ellman), AChE; assay type: biochemical; conditions: Table 2; human AChE; read-out: IC50 AChE
Experimental: as §1

brain AChE = target: T3, brain AChE (Mus musculus, UniProt P21836); experiment: Brain AChE inhibition in vivo; parameters: species or system mice; conditions: ip
T3 construct: Whole-brain homogenates were prepared in a Potter homogeniser; from tissue; host or cells: whole brain of CD-1 mice
T3 sequence (P21836 32-614): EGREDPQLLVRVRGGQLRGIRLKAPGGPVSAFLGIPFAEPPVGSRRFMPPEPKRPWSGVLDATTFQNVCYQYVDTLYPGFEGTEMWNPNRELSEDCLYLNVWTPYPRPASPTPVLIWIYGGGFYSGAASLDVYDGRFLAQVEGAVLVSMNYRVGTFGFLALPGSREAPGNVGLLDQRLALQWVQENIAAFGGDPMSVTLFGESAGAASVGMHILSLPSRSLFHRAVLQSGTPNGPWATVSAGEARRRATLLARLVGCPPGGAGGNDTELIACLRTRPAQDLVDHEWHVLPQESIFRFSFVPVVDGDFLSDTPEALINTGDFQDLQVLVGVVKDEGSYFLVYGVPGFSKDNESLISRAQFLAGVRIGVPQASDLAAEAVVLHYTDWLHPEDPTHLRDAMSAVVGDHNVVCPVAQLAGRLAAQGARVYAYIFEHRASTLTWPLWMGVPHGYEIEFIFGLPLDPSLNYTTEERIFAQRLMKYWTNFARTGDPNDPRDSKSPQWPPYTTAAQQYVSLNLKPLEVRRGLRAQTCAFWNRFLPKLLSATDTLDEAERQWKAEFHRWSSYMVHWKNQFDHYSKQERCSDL
Experimental: Bisuracil 3c was identified as the most promising for the inhibition of brain AChE in vivo. […].
For the brain AChE inhibition assay, the brains of mice were removed 30 min after i.p. injection of the tested compound (experimental group, n = 6 mice) or following i.p. vehicle injection (control group, n = 6 mice). The brains were subsequently frozen in liquid nitrogen. Whole-brain homogenates were prepared in a Potter homogeniser with 0.05 M Tris–HCl, 1% Triton X–100, 1M NaCl, and 2 mM ethylenediaminetetraacetic acid (pH 7.0; 4 °C; 1 part brain to 2 parts of buffer). The homogenate was centrifuged (14,000× g rpm; t = 4 °C) for 10 min using an Eppendorf 5430R centrifuge with an FA–45–30–11 rotor (Eppendorf AG, Hamburg, Germany). AChE activity in brain homogenates was measured using the method described by Dingova et al. with modification. […] The production of yellow 5–thio–2–nitro–benzoate anion resulting from the reduction of DTNB by thiocholine (the product of enzymatic hydrolysis of ATCH) was measured spectrophotometrically using a Shimadzu UV-1800 spectrophotometer (Shimadzu Co., Kyoto, Japan) according to Ellman’s method. The rate of thiocholine production over 20 min (from 10 to 30 min) was calculated. […] AChE activity was expressed in relation to the amount of total protein, which was determined by the Bradford method.

human BuChE = target: T4, human BuChE (Homo sapiens, UniProt P06276); experiment: Inhibition constants (Dixon and Cornish–Bowden plots), BuChE; assay type: biochemical
T4 construct: butyrylcholiesterase from human plasma; purchased Sigma-Aldrich; host or cells: human plasma
Experimental: as §2, §3

T2 sequence (P22303 32-614): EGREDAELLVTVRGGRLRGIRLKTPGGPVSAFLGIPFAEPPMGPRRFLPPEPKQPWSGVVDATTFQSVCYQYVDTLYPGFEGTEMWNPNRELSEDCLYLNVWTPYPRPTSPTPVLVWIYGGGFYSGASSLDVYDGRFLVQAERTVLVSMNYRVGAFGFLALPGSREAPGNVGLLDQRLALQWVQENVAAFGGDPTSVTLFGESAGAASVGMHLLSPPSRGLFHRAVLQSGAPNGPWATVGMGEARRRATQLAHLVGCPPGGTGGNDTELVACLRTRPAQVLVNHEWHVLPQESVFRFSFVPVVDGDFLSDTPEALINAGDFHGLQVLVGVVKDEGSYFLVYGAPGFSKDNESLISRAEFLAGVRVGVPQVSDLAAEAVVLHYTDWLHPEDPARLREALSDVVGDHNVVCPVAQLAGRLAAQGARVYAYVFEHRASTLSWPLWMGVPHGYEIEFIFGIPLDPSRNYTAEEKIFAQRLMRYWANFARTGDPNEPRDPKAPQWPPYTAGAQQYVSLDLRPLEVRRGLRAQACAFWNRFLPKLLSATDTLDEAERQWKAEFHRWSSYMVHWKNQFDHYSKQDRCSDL
T4 sequence (P06276 29-602): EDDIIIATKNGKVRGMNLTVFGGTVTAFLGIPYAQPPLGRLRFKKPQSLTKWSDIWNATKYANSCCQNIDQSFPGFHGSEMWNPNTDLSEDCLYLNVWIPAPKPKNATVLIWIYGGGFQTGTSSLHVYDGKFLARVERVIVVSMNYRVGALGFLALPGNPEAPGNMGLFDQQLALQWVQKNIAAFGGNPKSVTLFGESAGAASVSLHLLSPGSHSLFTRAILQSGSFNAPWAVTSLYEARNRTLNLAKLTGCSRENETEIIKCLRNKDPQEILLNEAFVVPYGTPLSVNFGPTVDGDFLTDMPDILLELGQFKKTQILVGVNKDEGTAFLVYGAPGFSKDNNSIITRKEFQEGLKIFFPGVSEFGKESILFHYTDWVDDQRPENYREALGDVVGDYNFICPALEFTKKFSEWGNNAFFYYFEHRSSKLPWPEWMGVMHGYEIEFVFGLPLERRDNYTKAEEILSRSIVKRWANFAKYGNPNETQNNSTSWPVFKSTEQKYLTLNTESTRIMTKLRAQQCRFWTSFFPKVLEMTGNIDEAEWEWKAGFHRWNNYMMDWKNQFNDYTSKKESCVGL
T1 sequence (P06276 29-602): as above

For `CCN(CCCCCn1c(=O)ccn(CCCCCn2c(C)cc(=O)n(C)c2=O)c1=O)Cc1ccccc1C#N` [3c], the IC50 (BChE from human plasma) was 28000 nM, the “Kui (uncompetitive inhibition constant), AChE” value (human AChE [1]; ATCh as substrate) was 4.45 ± 1.76 nM and the Ki (human AChE [1]; ATCh as substrate, read-out: Kci (competitive inhibition constant), AChE) was 0.7 ± 0.04 nM. The “type of AChE inhibition” value (human AChE [1]; Dixon and Cornish–Bowden plots) was “mixed type”, the IC50 (human AChE [2]) was 2.78 nM and 2.8 nM and the inhibition at 5 mg/kg (brain AChE) was 14.9 ± 3.8%. The inhibition at 10 mg/kg (brain AChE) was 54.2 ± 6.6%, the “Kui (uncompetitive inhibition constant), BuChE” value (human BuChE; BuTCh as substrate) was 0.68 ± 0.08 мM and the Ki (human BuChE; BuTCh as substrate, read-out: Kci (competitive inhibition constant), BuChE) was 40000 ± 7000 nM. For the same compound, the “type of BuChE inhibition” value (human BuChE; Dixon and Cornish–Bowden plots) was “mixed type”.
